Experimental data reported in patent US7723527B2 (Janssen Pharmaceutica NV, priority 2003, dated 2010).

Biological target: T1, human histamine H4 receptor (Homo sapiens, UniProt Q9H3N8)
T1 construct: expressed in transfected cells; host or cells: SK-N-MC cells or COS7 cells, transiently transfected; cell membranes used
Assay: Binding assay on recombinant human histamine H4 receptor (3H-histamine displacement)
Settings: competition binding with 3H-histamine; membranes of SK-N-MC or COS7 cells expressing human H4 receptor; Cheng-Prusoff, KD 5 nM, ligand 5 nM
Method in brief: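 Membranes from SK-N-MC or COS7 cells transiently transfected with human H4R, incubated with ^3H-histamine (5-70 nM) at room temperature for 45 min, nonspecific binding with 10,000 nM histamine. Filtration and scintillation counting; compound affinity from displacement of ^3H-ligand across varying concentrations.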

T1 sequence (Q9H3N8 whole entry): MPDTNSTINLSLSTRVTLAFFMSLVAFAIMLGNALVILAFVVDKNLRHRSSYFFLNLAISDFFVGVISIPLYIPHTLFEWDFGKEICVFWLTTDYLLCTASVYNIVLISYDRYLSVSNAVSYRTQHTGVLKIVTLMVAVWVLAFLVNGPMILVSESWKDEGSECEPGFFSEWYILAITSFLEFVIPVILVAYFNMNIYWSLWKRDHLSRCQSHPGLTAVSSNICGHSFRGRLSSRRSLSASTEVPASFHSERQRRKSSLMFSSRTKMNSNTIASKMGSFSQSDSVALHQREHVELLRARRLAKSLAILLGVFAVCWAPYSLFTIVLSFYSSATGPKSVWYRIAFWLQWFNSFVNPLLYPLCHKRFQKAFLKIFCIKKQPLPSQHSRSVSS

Cc1c(F)ccc2[nH]c(-c3cnc(OCCCC4CCN(C)CC4)cc3CN3CCCC3)nc12 [Example 127, 5-Fluoro-4-methyl-2-{6-[3-(1-methyl-piperidin-4-yl)-propoxy]-4-pyrrolidin-1-ylmethyl-pyridin-3-yl}-1H-benzoimidazole]
Ki: 773 nM

Cc1cccc2[nH]c(-c3cc(OCCCCC4CCN(C)CC4)ncc3Br)nc12 [Example 128, 2-{5-Bromo-2-[4-(1-methyl-piperidin-4-yl)-butoxy]-pyridin-4-yl}-4-methyl-1H-benzoimidazole]
Ki: 3 nM

Cc1c(F)ccc2[nH]c(-c3cc(OCCCCC4CCN(C)CC4)ncc3Br)nc12 [Example 129, 2-{5-Bromo-2-[4-(1-methyl-piperidin-4-yl)-butoxy]-pyridin-4-yl}-5-fluoro-4-methyl-1H-benzoimidazole]
Ki: 5 nM

Cc1cc(Cl)cc2[nH]c(-c3cc(OCCCCC4CCN(C)CC4)ncc3Br)nc12 [Example 130, 2-{5-Bromo-2-[4-(1-methyl-piperidin-4-yl)-butoxy]-pyridin-4-yl}-6-chloro-4-methyl-1H-benzoimidazole]
Ki: 5 nM

Cc1cc(C)c2nc(-c3cc(OCCCCC4CCN(C)CC4)ncc3Br)[nH]c2c1 [Example 131, 2-{5-Bromo-2-[4-(1-methyl-piperidin-4-yl)-butoxy]-pyridin-4-yl}-4,6-dimethyl-1H-benzoimidazole]
Ki: 3 nM

Cc1ccc2[nH]c(-c3cc(OCCCCC4CCN(C)CC4)ncc3Br)nc2c1C [Example 132, 2-{5-Bromo-2-[4-(1-methyl-piperidin-4-yl)-butoxy]-pyridin-4-yl}-4,5-dimethyl-1H-benzoimidazole]
Ki: 5 nM

Cc1c(Cl)ccc2[nH]c(-c3cc(OCCCCC4CCN(C)CC4)ncc3Br)nc12 [Example 133, 2-{5-Bromo-2-[4-(1-methyl-piperidin-4-yl)-butoxy]-pyridin-4-yl}-5-chloro-4-methyl-1H-benzoimidazole]
Ki: 12 nM

CN1CCC(CCCCOc2cc(-c3nc4cc(C(C)(C)C)ccc4[nH]3)c(Br)cn2)CC1 [Example 134, 2-{5-Bromo-2-[4-(1-methyl-piperidin-4-yl)-butoxy]-pyridin-4-yl}-5-tert-butyl-1H-benzoimidazole]
Ki: 117 nM

CN1CCC(CCCCOc2cc(-c3nc4cc(C(C)(C)C)ccc4[nH]3)ccn2)CC1 [Example 135, 5-tert-Butyl-2-{2-[4-(1-methyl-piperidin-4-yl)-butoxy]-pyridin-4-yl}-1H-benzoimidazole]
Ki: 47 nM

Cc1c(F)ccc2[nH]c(-c3cc(OCCCCC4CCN(C)CC4)ncc3Cl)nc12 [Example 136, 2-{5-Chloro-2-[4-(1-methyl-piperidin-4-yl)-butoxy]-pyridin-4-yl}-5-fluoro-4-methyl-1H-benzoimidazole]
Ki: 1 nM

Cc1ccc2[nH]c(-c3cc(OCCCCC4CCN(C)CC4)ncc3Cl)nc2c1C [Example 137, 2-{5-Chloro-2-[4-(1-methyl-piperidin-4-yl)-butoxy]-pyridin-4-yl}-4,5-dimethyl-1H-benzoimidazole]
Ki: 3 nM

Cc1cc(C)c2nc(-c3ccnc(OCCCCN4CCN(C)CC4)c3)[nH]c2c1 [Example 138, 4,6-Dimethyl-2-{2-[4-(4-methyl-piperazin-1-yl)-butoxy]-pyridin-4-yl}-1H-benzoimidazole]
Ki: 46 nM

Cc1cccc2[nH]c(-c3ccnc(OCCCCN4CCN(C)CC4)c3)nc12 [Example 139, 4-Methyl-2-{2-[4-(4-methyl-piperazin-1-yl)-butoxy]-pyridin-4-yl}-1H-benzoimidazole]
Ki: 69 nM

Cc1ccc2[nH]c(-c3ccnc(OCCCCN4CCN(C)CC4)c3)nc2c1C [Example 140, 4,5-Dimethyl-2-{2-[4-(4-methyl-piperazin-1-yl)-butoxy]-pyridin-4-yl}-1H-benzoimidazole]
Ki: 144 nM

Cc1c(F)ccc2[nH]c(-c3ccnc(OCCCCN4CCN(C)CC4)c3)nc12 [Example 141, 5-Fluoro-4-methyl-2-{2-[4-(4-methyl-piperazin-1-yl)-butoxy]-pyridin-4-yl}-1H-benzoimidazole]
Ki: 60 nM

Cc1cc(Cl)cc2[nH]c(-c3ccnc(OCCCCN4CCN(C)CC4)c3)nc12 [Example 142, 6-Chloro-4-methyl-2-{2-[4-(4-methyl-piperazin-1-yl)-butoxy]-pyridin-4-yl}-1H-benzoimidazole]
Ki: 73 nM

Cc1c(F)ccc2[nH]c(-c3ccnc(OCCCCN4CCCN(C)CC4)c3)nc12 [Example 143, 5-Fluoro-4-methyl-2-{2-[4-(4-methyl-[1,4]diazepan-1-yl)-butoxy]-pyridin-4-yl}-1H-benzoimidazole]
Ki: 6 nM

Cc1ccc2[nH]c(-c3ccnc(OCCCCN4CCCN(C)CC4)c3)nc2c1C [Example 144, 4,5-Dimethyl-2-{2-[4-(4-methyl-[1,4]diazepan-1-yl)-butoxy]-pyridin-4-yl}-1H-benzoimidazole]
Ki: 8 nM

Cc1cc(C)c2nc(-c3ccnc(OCCCCC4CCN(C)CC4)c3)[nH]c2c1 [Example 145, 4,6-Dimethyl-2-{2-[4-(1-methyl-piperidin-4-yl)-butoxy]-pyridin-4-yl}-1H-benzoimidazole]
Ki: 3 nM

Cc1cccc2[nH]c(-c3ccnc(OCCCCC4CCN(C)CC4)c3)nc12 [Example 146, 4-Methyl-2-{2-[4-(1-methyl-piperidin-4-yl)-butoxy]-pyridin-4-yl}-1H-benzoimidazole]
Ki: 5 nM

Cc1c(F)ccc2[nH]c(-c3ccnc(OCCCCC4CCN(C)CC4)c3)nc12 [Example 147, 5-Fluoro-4-methyl-2-{2-[4-(1-methyl-piperidin-4-yl)-butoxy]-pyridin-4-yl}-1H-benzoimidazole]
Ki: 8 nM

CN1CCC(CCCCOc2cc(-c3nc4c(Cl)cccc4[nH]3)ccn2)CC1 [Example 148, 4-Chloro-2-{2-[4-(1-methyl-piperidin-4-yl)-butoxy]-pyridin-4-yl}-1H-benzoimidazole]
Ki: 17 nM

Cc1ccc2[nH]c(-c3ccnc(OCCCCC4CCN(C)CC4)c3)nc2c1C [Example 149, 4,5-Dimethyl-2-{2-[4-(1-methyl-piperidin-4-yl)-butoxy]-pyridin-4-yl}-1H-benzoimidazole]
Ki: 4 nM

Cc1cc(Cl)cc2[nH]c(-c3ccnc(OCCCCC4CCN(C)CC4)c3)nc12 [Example 150, 6-Chloro-4-methyl-2-{2-[4-(1-methyl-piperidin-4-yl)-butoxy]-pyridin-4-yl}-1H-benzoimidazole]
Ki: 19 nM

Cc1c(Cl)ccc2[nH]c(-c3ccnc(OCCCCC4CCN(C)CC4)c3)nc12 [Example 151, 5-Chloro-4-methyl-2-{2-[4-(1-methyl-piperidin-4-yl)-butoxy]-pyridin-4-yl}-1H-benzoimidazole]
Ki: 21 nM

CC(C)(C)c1ccc2[nH]c(-c3ccnc(OCCCCC4CCNCC4)c3)nc2c1 [Example 152, 5-tert-Butyl-2-[2-(4-piperidin-4-yl-butoxy)-pyridin-4-yl]-1H-benzoimidazole]
Ki: 117 nM

Cc1cc(C)c2nc(-c3ccnc(OCCCCC4CCNCC4)c3)[nH]c2c1 [Example 153, 4,6-Dimethyl-2-[2-(4-piperidin-4-yl-butoxy)-pyridin-4-yl]-1H-benzoimidazole]
Ki: 179 nM

CCN1CCC(CCCCOc2cc(-c3nc4c(C)c(C)ccc4[nH]3)ccn2)CC1 [Example 154, 2-{2-[4-(1-Ethyl-piperidin-4-yl)-butoxy]-pyridin-4-yl}-4,5-dimethyl-1H-benzoimidazole]
Ki: 111 nM

Cc1cc(C)c2nc(-c3ccnc(OCCCCC4CCN(C)CC4)c3C)[nH]c2c1 [Example 155, 4,6-Dimethyl-2-{3-methyl-2-[4-(1-methyl-piperidin-4-yl)-butoxy]-pyridin-4-yl}-1H-benzoimidazole]
Ki: 13 nM

Cc1c(-c2nc3c(C)cccc3[nH]2)ccnc1OCCCCC1CCN(C)CC1 [Example 156, 4-Methyl-2-{3-methyl-2-[4-(1-methyl-piperidin-4-yl)-butoxy]-pyridin-4-yl}-1H-benzoimidazole]
Ki: 20 nM

Cc1c(-c2nc3c(C)cc(Cl)cc3[nH]2)ccnc1OCCCCC1CCN(C)CC1 [Example 157, 6-Chloro-4-methyl-2-{3-methyl-2-[4-(1-methyl-piperidin-4-yl)-butoxy]-pyridin-4-yl}-1H-benzoimidazole]
Ki: 28 nM

Cc1cccc2[nH]c(-c3ccnc(OCCCCC4CCN(C)CC4)c3Cl)nc12 [Example 158, 2-{3-Chloro-2-[4-(1-methyl-piperidin-4-yl)-butoxy]-pyridin-4-yl}-4-methyl-1H-benzoimidazole]
Ki: 21 nM

Cc1ccc2[nH]c(-c3ccnc(OCCCCC4CCN(C)CC4)c3Cl)nc2c1C [Example 159, 2-{3-Chloro-2-[4-(1-methyl-piperidin-4-yl)-butoxy]-pyridin-4-yl}-4,5-dimethyl-1H-benzoimidazole]
Ki: 19 nM

CN1CCC(CCCCOc2nccc(-c3nc4c(Cl)cccc4[nH]3)c2Cl)CC1 [Example 160, 4-Chloro-2-{3-chloro-2-[4-(1-methyl-piperidin-4-yl)-butoxy]-pyridin-4-yl}-1H-benzoimidazole]
Ki: 53 nM

Cc1c(F)ccc2[nH]c(-c3ccnc(OCCCCC4CCN(C)CC4)c3Cl)nc12 [Example 161, 2-{3-Chloro-2-[4-(1-methyl-piperidin-4-yl)-butoxy]-pyridin-4-yl}-5-fluoro-4-methyl-1H-benzoimidazole]
Ki: 20 nM

Cc1cc(C)c2nc(-c3ccnc(OCCCCC4CCN(C)CC4)c3Cl)[nH]c2c1 [Example 162, 2-{3-Chloro-2-[4-(1-methyl-piperidin-4-yl)-butoxy]-pyridin-4-yl}-4,6-dimethyl-1H-benzoimidazole]
Ki: 15 nM

Cc1cc(Cl)cc2[nH]c(-c3ccnc(OCCCCC4CCN(C)CC4)c3Cl)nc12 [Example 163, 6-Chloro-2-{3-chloro-2-[4-(1-methyl-piperidin-4-yl)-butoxy]-pyridin-4-yl}-4-methyl-1H-benzoimidazole]
Ki: 12 nM

Cc1c(Cl)ccc2[nH]c(-c3ccnc(OCCCCC4CCN(C)CC4)c3Cl)nc12 [Example 164, 5-Chloro-2-{3-chloro-2-[4-(1-methyl-piperidin-4-yl)-butoxy]-pyridin-4-yl}-4-methyl-1H-benzoimidazole]
Ki: 7 nM
